Reference: patent US20220378706A1, “PHARMACEUTICAL COMPOSITION COMPRISING PDE9 INHIBITOR” (Eisai R&D Management Co., Ltd., priority 2017, published 2022)
Where two headings read alike, the source gives them in different places.

Experiments:
[1] = Single dose clinical study Part B: CSF Compound A pharmacokinetics; assay type: in vivo; details: human
Protocol: After the Screening Period, subjects returned to the clinic on […] for Baseline procedures. […] Serial CSF sampling via the lumbar catheter commenced on Day 1, after an overnight fast. CSF samples were collected on Day 1 over a period of 3 hours predose. Subjects were then administered study drug, and serial CSF sampling for 30 hours postdose was performed to determine CSF cGMP and CSF Compound A concentrations. Blood samples for plasma Compound A PK were collected at the same time points as CSF sampling. Safety evaluations were also performed.
Concentrations of Compound A in CSF were analyzed in serial CSF samples collected at predose and postdose at 1, 2, 3, 4, 5, 6, 8, 10, 12, 14, 16, 18, 24, and 30 hours.
Plasma, urine and CSF concentrations of Compound A were measured using validated liquid chromatography mass spectrometry/mass spectrometry (LC MS/MS) assay methods. CSF concentrations of cGMP were measured using a validated LC-MS/MS assay method.
The following PK parameters were derived by noncompartmental analysis using CSF Compound A concentrations: […]

[2] = Single dose clinical study: safety assessments (adverse events); assay type: in vivo, human; details: for incidence of any TEAEs: Part B 100 mg Cohort
Description: Safety assessments consisted of monitoring and recording all adverse events (AEs) and serious adverse events (SAEs); laboratory evaluation for hematology, blood chemistry, and urine values; periodic measurement of vital signs (including orthostatic changes in blood pressure [BP] and heart rate [HR]) and electrocardiograms (ECGs); and the performance of physical examinations.
Safety data evaluated included AEs, clinical laboratory results, vital signs, and ECGs. Treatment emergent adverse events (TEAEs) were summarized by presenting the incidence of AEs for each cohort and dose group. For the laboratory, vital signs, and ECG data in all cohorts in any treatment period, the baseline was the values recorded immediately prior to dosing with study drug in that treatment period.

SMILES: COc1ncc(C)c(-c2ccc3c(c2)[nH]c(=O)c2cnn([C@H]4CCOC4)c23)c1C [Compound A, (S)-7-(2-methoxy-3,5-dimethylpyridin-4-yl)-1-(tetrahydrofuran-3-yl)-1H-pyrazolo[4,3-c]quin olin-4(5H)-one]
- Kp ([1]; CSF and plasma, oral, 50 to 400 mg, read-out: GM ratios of CSF AUC(0-t) to plasma AUC(0-t) across doses): 0.0241 to 0.028
- Kp ([1]; CSF and plasma, oral, 50 to 400 mg, read-out: GM ratios of CSF Cmax to plasma Cmax across doses): 0.02 to 0.0277
- Kp ([1]; CSF and plasma, po, 50 mg, healthy adults Part B, single oral 50 mg, fasted, read-out: CSF: plasma Cmax ratio (expressed as %) GM (% CV)): 0.02
- Kp ([1]; CSF and plasma, po, 75 mg, healthy adults Part B, single oral 75 mg, fasted, from AUC (0-t) or AUC (0-30 h), read-out: CSF: plasma AUC ratio (expressed as %) GM (% CV)): 0.0264
- Kp ([1]; CSF and plasma, po, 75 mg, healthy adults Part B, single oral 75 mg, fasted, read-out: CSF: plasma Cmax ratio (expressed as %) GM (% CV)): 0.0264
- Kp ([1]; CSF and plasma, po, 100 mg, healthy adults Part B, single oral 100 mg, fasted, from AUC (0-t) or AUC (0-30 h), read-out: CSF: plasma AUC ratio (expressed as %) GM (% CV)): 0.0266
- Kp ([1]; CSF and plasma, po, 100 mg, healthy adults Part B, single oral 100 mg, fasted, read-out: CSF: plasma Cmax ratio (expressed as %) GM (% CV)): 0.0194
- Kp ([1]; CSF and plasma, po, 200 mg, healthy adults Part B, single oral 200 mg, fasted, from AUC (0-t) or AUC (0-30 h), read-out: CSF: plasma AUC ratio (expressed as %) GM (% CV)): 0.0238
- Kp ([1]; CSF and plasma, po, 200 mg, healthy adults Part B, single oral 200 mg, fasted, read-out: CSF: plasma Cmax ratio (expressed as %) GM (% CV)): 0.0214
- Kp ([1]; CSF and plasma, po, 400 mg, healthy adults Part B, single oral 400 mg, fasted, from AUC (0-t) or AUC (0-30 h), read-out: CSF: plasma AUC ratio (expressed as %) GM (% CV)): 0.0279
- Kp ([1]; CSF and plasma, po, 400 mg, healthy adults Part B, single oral 400 mg, fasted, read-out: CSF: plasma Cmax ratio (expressed as %) GM (% CV)): 0.0203
- Kp ([1]; CSF, oral, 50 to 400 mg, read-out: mean CSF:plasma ratios (expressed as percentages) of Cmax or AUC(0-t)): 0.02 to 0.03
- Tmax ([1]; CSF, oral, single doses (50 to 400 mg except 50 mg; b332: 100 to 400 mg), read-out: median CSF tmax across doses): 4.37 to 6.87 h
- Tmax ([1]; CSF, healthy adults Part B, single oral 50 mg, fasted, read-out: CSF tmax Median): 11.9 h
- Tmax ([1]; CSF, healthy adults Part B, single oral 75 mg, fasted, read-out: CSF tmax Median): 5.37 h
- Tmax ([1]; CSF, healthy adults Part B, single oral 100 mg, fasted, read-out: CSF tmax Median): 6.87 h
- Tmax ([1]; CSF, healthy adults Part B, single oral 200 mg, fasted, read-out: CSF tmax Median): 4.37 h
- Tmax ([1]; CSF, healthy adults Part B, single oral 400 mg, fasted, read-out: CSF tmax Median): 5.37 h
- tolerability ([2]; Part A healthy adult subjects, single oral doses 10 to 1200 mg): well tolerated
- TEAE back pain ([2]; Part B): 20.8%
- TEAE dizziness ([2]; Part B): 16.7%
- TEAE headache ([2]; Part B): 29.2%
- TEAE musculoskeletal stiffness ([2]; Part B): 20.8%
- TEAE nausea ([2]; Part B): 12.5%
- TEAE pain in extremity ([2]; Part B): 8.3%
- TEAE post lumbar puncture syndrome ([2]; Part B): 37.5%
- TEAE procedural nausea ([2]; Part B): 8.3%
- TEAE procedural vomiting ([2]; Part B): 8.3%
- TEAE vomiting ([2]; Part B): 20.8%
- incidence of any TEAEs ([2]; fasted state): 66.7%
- incidence of any TEAEs ([2]; fed state): 50%
- tolerability ([2]; Part B healthy adults with serial CSF sampling, single oral doses 50 to 400 mg): well tolerated
- subjects with at least 1 TEAE ([2]; Part B, both treatment periods, all doses): 83.3%
- tolerability ([2]; Part C healthy elderly subjects, single dose 100 mg): well tolerated
- subjects with at least 1 TEAE ([2]; Part C healthy elderly, 100 mg): 16.7%
- TEAE headache ([2]; Part D): 16.7%
- tolerability ([2]; Part D healthy Japanese adult subjects, single oral doses 25 to 400 mg): well tolerated
- subjects with at least 1 TEAE ([2]; Part D, all doses): 38.9%
- TEAE dizziness ([2]; Parts A and C): 5.6%
- TEAE headache ([2]; Parts A and C): 11.6%
- TEAE increase in orthostatic heart rate response ([2]; Parts A and C): 3.7%
- TEAE insomnia ([2]; Parts A and C): 5.6%
- TEAE paresthesia ([2]; Parts A and C): 3.7%
- TEAE postural orthostatic tachycardia ([2]; Parts A and C): 5.6%
- deaths or SAEs ([2]; Parts A and C): no deaths or SAEs
- subjects with at least 1 TEAE ([2]; Parts A and C, all doses): 42.6%
- maximum tolerated dose ([2]; single oral doses 10 to 1200 mg, healthy adults): not reached
